Values after ≈ are worked out from the molar mass of the structure shown.
Assays:
S. aureus, 209P = assay: MIC against S. aureus, 209P; format: cell-based; details: Staphylococcus aureus
From the text: (§1) Antibacterial activities of certain compounds (I) of this invention and corresponding 19-formylmacrolide antibiotics as well as their levels in blood and therapeutic effects for infectious diseases upon their oral administration are compared in Table 2.
MIC (μg/ml): S. aureus, 209P

[1] = Antibiotics levels in blood upon oral administration at 100 mg/kg to mice (by the paper disk method); format: in vivo; details: mouse, ND: Below detectable limit; for Cmax: read-out: Antibiotics levels in blood upon oral administration: Peak value
Experimental: as §1
Antibiotics levels in blood
upon oral administration at
100 mg/kg to mice (by the paper
disk method) (μg · h/ml)

S. pyogenes, S-23 [2] = assay: MIC against infective microorganism S. pyogenes, S-23; format: cell-based; details: Streptococcus pyogenes, S23
From the text: as §1

S. pyogenes, S-23 [3] = assay: Treatment results of infectious diseases of mice by oral administration; format: in vivo; details: Streptococcus pyogenes, S23; mice infected with S. pyogenes S-23, oral administration
From the text: as §1
infectious diseases of mice

## CCC(=O)OC1CC(=O)OC(CC)C(COC2OC(C)CC(OC)C2OC)C=C(C)C=CC(=O)C(C)CC(CC=O)C(OC2OC(C)C(O)C(N(C)C)C2O)C1C (stereo not drawn) [Example 2a, 3O--Propionyl-4"-deoxydesmycosin, reference compound]
S. aureus, 209P
  MIC: 0.2 µg/mL (≈ 0.246 µM)
[1]
  AUC: 1570 ng·h/mL
  Cmax: 420 ng/mL

## CCC(=O)OC=CC1CC(C)C(=O)C=CC(C)=CC(COC2OC(C)CC(OC)C2OC)C(CC)OC(=O)CC(OC(=O)CC)C(C)C1OC1OC(C)C(O)C(N(C)C)C1O (stereo not drawn) [Example 2b, 3,20-Di-O-propionyl-19, 20-enol-4"-deoxydesmycosin]
S. aureus, 209P
  MIC: 0.39 µg/mL (≈ 0.449 µM)
[1]
  AUC: 2800 ng·h/mL
  Cmax: 2630 ng/mL

## CCC(=O)OC1CC(=O)OC(CC)C(COC2OC(C)C(O)C(OC)C2OC)C=C(C)C=CC(=O)C(C)CC(CC=O)C(OC2OC(C)CC(N(C)C)C2O)C1C (stereo not drawn) [Example 3a, 3O--Propionyl-4'deoxydesmycosin, reference compound]
S. aureus, 209P
  MIC: 0.2 µg/mL (≈ 0.246 µM)
S. pyogenes, S-23 [2]
  MIC: 0.05 µg/mL (≈ 0.0616 µM)
[1]
  AUC: 1790 ng·h/mL
  Cmax: 430 ng/mL
S. pyogenes, S-23 [3]
  ED50: > 200 mg/kg

## CCC(=O)OC=CC1CC(C)C(=O)C=CC(C)=CC(COC2OC(C)C(O)C(OC)C2OC)C(CC)OC(=O)CC(OC(=O)CC)C(C)C1OC1OC(C)CC(N(C)C)C1O (stereo not drawn) [Example 3b, 3,20-Di-O-propionyl-19,20-enol-4'-deoxydesmycosin]
S. aureus, 209P
  MIC: 0.39 µg/mL (≈ 0.449 µM)
S. pyogenes, S-23 [2]
  MIC: 0.2 µg/mL (≈ 0.23 µM)
[1]
  AUC: 4900 ng·h/mL
  Cmax: 2710 ng/mL
S. pyogenes, S-23 [3]
  ED50: 59 mg/kg

## CCC(=O)OC1CC(=O)OC(CC)C(COC(=O)N(C)C)C=C(C)C=CC(=O)C(C)CC(CC=O)C(OC2OC(C)C(O)C(N(C)C)C2O)C1C (stereo not drawn) [Ia, 3O--Propionyl-23-O--dimethylcarbamoyl-OMT, reference compound]
S. aureus, 209P
  MIC: 0.2 µg/mL (≈ 0.276 µM)
S. pyogenes, S-23 [2]
  MIC: 0.1 µg/mL (≈ 0.138 µM)
S. pyogenes, S-23 [3]
  ED50: > 400 mg/kg

## CCC(=O)OC=CC1CC(C)C(=O)C=CC(C)=CC(COC(=O)N(C)C)C(CC)OC(=O)CC(OC(=O)CC)C(C)C1OC1OC(C)C(O)C(N(C)C)C1O (stereo not drawn) [Ib, 3,20-Di-O-propionyl-19,20-enol-23-O-dimethylcarbamoyl-OMT]
S. aureus, 209P
  MIC: 0.78 µg/mL (≈ 0.999 µM)
S. pyogenes, S-23 [2]
  MIC: 0.78 µg/mL (≈ 0.999 µM)
[1]
  AUC: 6000 ng·h/mL
  Cmax: 3000 ng/mL
S. pyogenes, S-23 [3]
  ED50: 100 to 200 mg/kg
